Target: p300 HAT domain (residues 1287-1666) (Homo sapiens (Human), UniProt Q09472)
Assay: p300 HAT SPA assay (scintillation proximity assay, acetylation of biotinylated H3(1-21) peptide)
Assay type: biochemical
Details: average of at least 2 replicate titrations
In short: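 Scintillation proximity readout of acetylated biotin-H3(1-21) captured on streptavidin plates after 1.5 hr at RT; enzyme was Ni2+/anion-exchange-purified HAT domain in 20 mM Hepes pH 7.5. Inhibitor IC50s calculated from the data.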

Sequence of p300 HAT domain (residues 1287-1666) (Q09472 1287-1666): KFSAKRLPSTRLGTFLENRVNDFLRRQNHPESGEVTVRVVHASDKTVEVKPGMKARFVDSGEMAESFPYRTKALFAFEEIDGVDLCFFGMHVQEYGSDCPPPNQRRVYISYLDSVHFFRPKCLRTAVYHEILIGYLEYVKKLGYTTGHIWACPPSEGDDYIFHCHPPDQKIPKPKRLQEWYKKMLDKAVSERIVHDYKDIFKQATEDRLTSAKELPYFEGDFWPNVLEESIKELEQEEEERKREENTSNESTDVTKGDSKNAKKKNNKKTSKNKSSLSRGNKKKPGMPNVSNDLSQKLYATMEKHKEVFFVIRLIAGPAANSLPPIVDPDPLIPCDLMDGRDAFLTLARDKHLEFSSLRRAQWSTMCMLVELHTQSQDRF

| Compound | IC50 [nM] |
| --- | --- |
| Cc1cnn(-c2ccc(NC(=O)C(NCC(C)c3ccc(C#N)cc3)c3ccccc3)nc2)c1 (single isomer, unassigned) [62 Isomer 1] | > 2000 |
| Cc1cn(-c2ccc(NC(=O)C(NCCc3ccc(C#N)cc3)c3ccccc3)nc2)cn1 (single isomer, unassigned) [28 Isomer 2] | 2830 |
| CC(CNC(C(=O)Nc1ccc(-c2cnn(C)n2)cn1)c1ccccc1)c1ccc(C#N)cc1 (single isomer, unassigned) [98 Isomer 2] | 6.59 |
| Cn1cc(-c2ccc3c(c2)CCN3C(=O)C(NCCc2ccc(C#N)cc2)c2ccccc2)cn1 (single isomer, unassigned) [152 Isomer 2] | 31.8 |
| Cc1cnn(-c2ccc(NC(=O)C(NCC(C)c3ccc(C#N)cc3)c3ccccc3)nc2)c1 (single isomer, unassigned) [62 Isomer 2] | 565 |
| Cn1cc(-c2cccc(NC(=O)C(NCCc3ccc(C#N)cc3)c3ccccc3)n2)cn1 (single isomer, unassigned) [123 Isomer 2] | > 2000 |
| Cn1cc(-c2cnc(NC(=O)C(NCCc3ccc(C#N)cc3)c3ccccc3)c(F)c2)cn1 (single isomer, unassigned) [75 Isomer 1] | 149 |
| Cc1cnn(-c2ccc(NC(=O)C(NCC(C)c3ccc(C#N)cc3)c3ccccc3)nc2)c1 (single isomer, unassigned) [62 Isomer 3] | > 2000 |
| N#Cc1ccc(CCNC(C(=O)Nc2ccc(-c3cn[nH]c3)cn2)c2ccccc2)cc1 (single isomer, unassigned) [7 Isomer 2] | 376 |
| COc1cc(NC(=O)C(NCCc2ccc(C#N)cc2)c2ccccc2)ccc1-c1cnn(C)c1 (single isomer, unassigned) [25 Isomer 1] | 1590 |
| CN1CCN(c2ccc(NC(=O)C(NCCc3ccc(C#N)cc3)c3ccccc3)nc2)CC1=O (single isomer, unassigned) [44 Isomer 2] | 41.6 |
| Cc1cc(NC(=O)C(NC[C@@H](C)c2ccc(C#N)cc2)c2ccccc2)ncc1-c1cnn(C)c1 (single isomer, unassigned) [115 Isomer 2] | 32.7 |
| CN1CCN(c2ccc(NC(=O)C(NCCc3ccc(C#N)cc3)c3ccccc3)nc2)CC1=O (single isomer, unassigned) [44 Isomer 1] | > 2000 |
| Cc1ccc(CCNC(C(=O)Nc2ccc(-c3cnn(C)c3)cn2)c2ccccc2)cc1 (single isomer, unassigned) [48 Isomer 2] | 1560 |
| Cn1cc(-c2cccc(NC(=O)C(NCCc3ccc(C#N)cc3)c3ccccc3)n2)cn1 (single isomer, unassigned) [123 Isomer 1] | > 2000 |
| CC(=O)N1CCN(c2ccc(NC(=O)C(NCCc3ccc(C#N)cc3)c3ccccc3)nc2)CC1 (single isomer, unassigned) [72 Isomer 1] | 85.2 |
| Cn1cc(-c2cnc(NC(=O)C(NCCc3ccc(C#N)cc3)c3ccccc3)c(F)c2)cn1 (single isomer, unassigned) [75 Isomer 2] | > 2000 |
| Cn1cnc(-c2ccc(NC(=O)C(NCCc3ccc(C#N)cc3)c3ccccc3)nc2)c1 (single isomer, unassigned) [13 Isomer 1] | > 5000 |
| Cn1cc(-c2cnc(NC(=O)C(NCCc3ccc(C#N)cc3)c3ccccc3)cc2F)cn1 (single isomer, unassigned) [74 Isomer 2] | 146 |
| COC1(C)CCN(c2ccc(NC(=O)C(NCCc3ccc(C#N)cc3)c3ccccc3)nc2)CC1 (single isomer, unassigned) [53 Isomer 2] | > 2000 |
| CS(=O)(=O)N1CCN(c2ccc(NC(=O)C(NCCc3ccc(C#N)cc3)c3ccccc3)nc2)CC1 (single isomer, unassigned) [68 Isomer 2] | 70 |
| C[C@H](CNC(C(=O)Nc1ccc(-c2ccn(C)c(=O)c2)cn1)c1ccccc1)c1ccc(C#N)cc1 (single isomer, unassigned) [105 Isomer 2] | 16.4 |

| Compound | IC50 [nM] |
| --- | --- |
| CC(CNC(C(=O)Nc1ccc(-c2cnn(C)c2)cn1)c1ccccc1)c1ccc(C#N)c(F)c1 (single isomer, unassigned) [91 Isomer 2] | 6.4 |
| Cn1cc(-c2ccc(NC(=O)C(NCC(c3ccc(C#N)cc3)C(F)(F)F)c3ccccc3)nc2)cn1 (single isomer, unassigned) [149 Isomer 2] | 19 |
| Cc1cnn(-c2ccc(NC(=O)C(NCC(C)c3ccc(C#N)cc3)c3ccccc3)nc2)c1 (single isomer, unassigned) [62 Isomer 4] | 52.6 |
| Cc1ccn(-c2ccc(NC(=O)C(NCC(C)c3ccc(C#N)cc3)c3ccccc3)nc2)n1 (single isomer, unassigned) [61 Isomer 4] | 1340 |
| Cc1ccn(-c2ccc(NC(=O)C(NCC(C)c3ccc(C#N)cc3)c3ccccc3)nc2)n1 (single isomer, unassigned) [61 Isomer 2] | > 5000 |
| Cc1ccn(-c2ccc(NC(=O)C(NCC(C)c3ccc(C#N)cc3)c3ccccc3)nc2)n1 (single isomer, unassigned) [61 Isomer 1] | 2410 |
| CN1CCN(c2ccc(NC(=O)C(NCCc3ccc(Cl)cc3)c3ccccc3)nc2)CC1=O (single isomer, unassigned) [45 Isomer 1] | 26 |
| N#Cc1ccc(CCNC(C(=O)Nc2ccc(-c3ccccc3)cn2)c2ccccc2)cc1 (single isomer, unassigned) [34 Isomer 2] | 361 |
| C[C@H](CNC(C(=O)Nc1ccc(-c2cnn(CC(=O)N(C)C)c2)cn1)c1cccc(F)c1)c1ccc(C#N)cc1 (single isomer, unassigned) [138 Isomer 1] | 435 |
| CC(CNC(C(=O)Nc1ccc(-c2cnn(C)c2)cn1)c1ccccc1)c1ccc(C#N)c(F)c1 (single isomer, unassigned) [91 Isomer 3] | 1020 |
| CN1CCN(c2ccc(NC(=O)C(NCCc3ccc(Cl)cc3)c3ccccc3)nc2)CC1 (single isomer, unassigned) [69 Isomer 1] | 35.8 |
| Cc1c(-c2ccc(NC(=O)C(NC[C@@H](C)c3ccc(C#N)cc3)c3ccccc3)nc2)cnn1C (single isomer, unassigned) [114 Isomer 1] | 528 |
| CO[C@@H]1CCN(c2ccc(NC(=O)C(NCC(C)c3ccc(C#N)cc3)c3ccccc3)nc2)C1 (single isomer, unassigned) [92 Isomer 4] | > 2000 |
| CO[C@@H]1CCN(c2ccc(NC(=O)C(NCC(C)c3ccc(C#N)cc3)c3ccccc3)nc2)C1 (single isomer, unassigned) [92 Isomer 2] | 11.5 |
| COc1cc(NC(=O)C(NCCc2ccc(C#N)cc2)c2ccccc2)ccc1-c1cnn(C)c1 (single isomer, unassigned) [25 Isomer 2] | > 5000 |
| CC(CNC(C(=O)Nc1ccc(N2CCN(C)C(=O)C2)cn1)c1cnn(C)c1)c1ccc(C#N)cc1 (single isomer, unassigned) [136 Isomer 1] | > 2000 |
| CC(Cc1ccc(Cl)cc1)NC(C(=O)Nc1ccc(-c2cnn(C)c2)cc1)c1ccccc1 (single isomer, unassigned) [3 Isomer 2] | > 5000 |
| Cn1cc(-c2cnc(NC(=O)C(NCCc3ccc(C#N)cc3)c3ccccc3)c(Cl)c2)cn1 (single isomer, unassigned) [43 Isomer 2] | > 5000 |
| Cn1cc(-c2ccnc(NC(=O)C(NCCc3ccc(C#N)cc3)c3ccccc3)c2)cn1 (single isomer, unassigned) [122 Isomer 2] | 48900 |
| Cn1cc(-c2ccc(NC(=O)C(NCCc3ccc(S(N)(=O)=O)cc3)c3ccccc3)cc2)cn1 (single isomer, unassigned) [4 Isomer 1] | 4990 |
| Cn1cc(-c2ccc(NC(=O)C(NCCc3ccc(Cl)cc3)c3cnn(C)c3)nc2)cn1 (single isomer, unassigned) [148 Isomer 2] | 140 |

Target: full length p300 (Homo sapiens (Human), UniProt Q09472)
Assay: full length p300 SPA assay
Assay type: biochemical
Details: average of at least 2 replicate titrations, read-out: FL P300 IC50
Protocol: Reactions were initiated with 12.5 μL 2 μM biotinylated H3(1-21) peptide (New England Peptide) and run for 1 hr at RT, then quenched with 20 μL stop solution (200 mM Tris pH 8.0, 200 mM EDTA, 2M NaCl, 160 μM anacardic acid). 35 μL of the reaction volume was transferred to a 384-well streptavidin FlashPlate (PerkinElmer) using a Bravo liquid handler (Velocity 11) and incubated for 1.5 hr at RT. Plates were aspirated, washed with 95 μL wash buffer (15 mM Tris pH 8.5, 0.069 μM Brij-35), aspirated, sealed, and scintillation counts read on a Topcount (PerkinElmer). Data were analyzed in Genedata to determine inhibitor IC50 values.
The full length p300 SPA assay was run following the same protocol as p300 HAT SPA assay, but used 6 nM purified full length p300 (purchased from Active Motif) in place of the purified p300-HAT domain.

Sequence of full length p300 (Q09472 whole entry): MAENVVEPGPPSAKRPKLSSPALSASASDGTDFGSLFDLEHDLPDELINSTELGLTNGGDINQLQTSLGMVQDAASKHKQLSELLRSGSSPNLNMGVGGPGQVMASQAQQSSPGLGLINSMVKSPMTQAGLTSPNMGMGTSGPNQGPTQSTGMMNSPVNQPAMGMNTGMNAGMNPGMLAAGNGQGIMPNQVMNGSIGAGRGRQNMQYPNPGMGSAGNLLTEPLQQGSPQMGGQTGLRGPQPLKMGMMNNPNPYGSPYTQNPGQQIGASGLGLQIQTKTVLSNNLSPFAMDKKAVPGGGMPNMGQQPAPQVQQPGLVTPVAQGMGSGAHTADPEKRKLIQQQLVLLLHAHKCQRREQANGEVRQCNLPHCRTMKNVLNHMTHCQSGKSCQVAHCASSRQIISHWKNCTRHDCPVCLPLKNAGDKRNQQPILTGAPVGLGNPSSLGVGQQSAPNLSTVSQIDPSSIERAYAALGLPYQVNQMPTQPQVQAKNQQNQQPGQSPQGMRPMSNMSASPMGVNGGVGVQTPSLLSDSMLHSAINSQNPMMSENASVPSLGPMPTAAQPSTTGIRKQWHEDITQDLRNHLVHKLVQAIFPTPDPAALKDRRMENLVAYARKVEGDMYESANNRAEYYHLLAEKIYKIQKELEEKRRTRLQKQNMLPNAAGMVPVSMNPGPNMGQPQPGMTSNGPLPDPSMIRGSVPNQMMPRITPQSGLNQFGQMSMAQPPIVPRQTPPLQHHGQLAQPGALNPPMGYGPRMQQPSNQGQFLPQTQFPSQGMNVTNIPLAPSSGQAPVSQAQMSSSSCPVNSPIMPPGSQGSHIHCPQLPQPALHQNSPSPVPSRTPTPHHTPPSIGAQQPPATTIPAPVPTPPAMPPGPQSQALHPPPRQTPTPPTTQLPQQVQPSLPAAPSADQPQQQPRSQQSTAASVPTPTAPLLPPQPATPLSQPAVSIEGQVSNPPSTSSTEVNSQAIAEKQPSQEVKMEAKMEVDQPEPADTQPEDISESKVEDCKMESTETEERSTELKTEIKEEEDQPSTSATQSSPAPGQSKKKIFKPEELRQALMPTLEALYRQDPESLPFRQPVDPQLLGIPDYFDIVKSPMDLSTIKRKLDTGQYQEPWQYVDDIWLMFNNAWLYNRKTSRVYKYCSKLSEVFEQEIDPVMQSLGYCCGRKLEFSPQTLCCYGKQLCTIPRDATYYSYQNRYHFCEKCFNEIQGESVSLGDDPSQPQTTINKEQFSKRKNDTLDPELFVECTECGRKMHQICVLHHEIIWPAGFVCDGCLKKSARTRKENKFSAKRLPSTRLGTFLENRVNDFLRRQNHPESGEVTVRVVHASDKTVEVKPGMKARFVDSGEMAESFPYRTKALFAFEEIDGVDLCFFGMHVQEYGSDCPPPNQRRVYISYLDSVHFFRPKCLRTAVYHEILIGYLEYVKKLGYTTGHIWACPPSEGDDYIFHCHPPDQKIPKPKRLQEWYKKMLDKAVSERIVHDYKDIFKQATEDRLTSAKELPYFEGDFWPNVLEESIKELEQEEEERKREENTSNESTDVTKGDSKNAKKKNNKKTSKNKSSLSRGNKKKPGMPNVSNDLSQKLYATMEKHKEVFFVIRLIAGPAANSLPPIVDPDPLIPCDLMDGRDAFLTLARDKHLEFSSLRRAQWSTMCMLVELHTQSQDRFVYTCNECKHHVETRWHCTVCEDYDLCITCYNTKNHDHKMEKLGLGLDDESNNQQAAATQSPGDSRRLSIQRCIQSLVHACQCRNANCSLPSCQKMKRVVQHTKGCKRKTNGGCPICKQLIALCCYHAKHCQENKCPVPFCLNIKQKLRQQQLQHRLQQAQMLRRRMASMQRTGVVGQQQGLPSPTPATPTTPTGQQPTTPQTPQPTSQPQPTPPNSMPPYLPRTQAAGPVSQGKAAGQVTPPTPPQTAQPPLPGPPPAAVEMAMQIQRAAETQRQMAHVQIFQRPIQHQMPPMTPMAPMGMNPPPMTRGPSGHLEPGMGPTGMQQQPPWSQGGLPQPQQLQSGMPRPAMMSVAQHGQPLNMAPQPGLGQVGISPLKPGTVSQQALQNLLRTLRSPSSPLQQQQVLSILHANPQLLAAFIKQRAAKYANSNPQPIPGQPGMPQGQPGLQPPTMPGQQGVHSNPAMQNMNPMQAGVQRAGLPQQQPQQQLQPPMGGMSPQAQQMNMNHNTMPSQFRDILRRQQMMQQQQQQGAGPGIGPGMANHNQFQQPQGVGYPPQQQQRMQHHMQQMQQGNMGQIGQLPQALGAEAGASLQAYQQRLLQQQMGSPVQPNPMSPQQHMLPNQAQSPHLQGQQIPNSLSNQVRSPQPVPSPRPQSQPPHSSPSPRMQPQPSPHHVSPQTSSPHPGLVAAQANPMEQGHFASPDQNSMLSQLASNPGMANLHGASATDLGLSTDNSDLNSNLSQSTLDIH

| Compound | IC50 [nM] |
| --- | --- |
| Cc1cnn(-c2ccc(NC(=O)C(NCC(C)c3ccc(C#N)cc3)c3ccccc3)nc2)c1 (single isomer, unassigned) [62 Isomer 1] | 224 |
| Cc1cn(-c2ccc(NC(=O)C(NCCc3ccc(C#N)cc3)c3ccccc3)nc2)cn1 (single isomer, unassigned) [28 Isomer 2] | 24 |
| CC(CNC(C(=O)Nc1ccc(-c2cnn(C)n2)cn1)c1ccccc1)c1ccc(C#N)cc1 (single isomer, unassigned) [98 Isomer 2] | 1 |
| Cn1cc(-c2ccc3c(c2)CCN3C(=O)C(NCCc2ccc(C#N)cc2)c2ccccc2)cn1 (single isomer, unassigned) [152 Isomer 2] | < 2 |
| Cc1cnn(-c2ccc(NC(=O)C(NCC(C)c3ccc(C#N)cc3)c3ccccc3)nc2)c1 (single isomer, unassigned) [62 Isomer 2] | 16.7 |
| Cn1cc(-c2cccc(NC(=O)C(NCCc3ccc(C#N)cc3)c3ccccc3)n2)cn1 (single isomer, unassigned) [123 Isomer 2] | 13500 |
| Cn1cc(-c2cnc(NC(=O)C(NCCc3ccc(C#N)cc3)c3ccccc3)c(F)c2)cn1 (single isomer, unassigned) [75 Isomer 1] | 4.2 |
| Cc1cnn(-c2ccc(NC(=O)C(NCC(C)c3ccc(C#N)cc3)c3ccccc3)nc2)c1 (single isomer, unassigned) [62 Isomer 3] | 618 |
| N#Cc1ccc(CCNC(C(=O)Nc2ccc(-c3cn[nH]c3)cn2)c2ccccc2)cc1 (single isomer, unassigned) [7 Isomer 2] | 13.4 |
| COc1cc(NC(=O)C(NCCc2ccc(C#N)cc2)c2ccccc2)ccc1-c1cnn(C)c1 (single isomer, unassigned) [25 Isomer 1] | 40.1 |
| CN1CCN(c2ccc(NC(=O)C(NCCc3ccc(C#N)cc3)c3ccccc3)nc2)CC1=O (single isomer, unassigned) [44 Isomer 2] | 2.66 |
| Cc1cc(NC(=O)C(NC[C@@H](C)c2ccc(C#N)cc2)c2ccccc2)ncc1-c1cnn(C)c1 (single isomer, unassigned) [115 Isomer 2] | 1.2 |
| CN1CCN(c2ccc(NC(=O)C(NCCc3ccc(C#N)cc3)c3ccccc3)nc2)CC1=O (single isomer, unassigned) [44 Isomer 1] | 278 |
| Cc1ccc(CCNC(C(=O)Nc2ccc(-c3cnn(C)c3)cn2)c2ccccc2)cc1 (single isomer, unassigned) [48 Isomer 2] | 31.8 |
| Cn1cc(-c2cccc(NC(=O)C(NCCc3ccc(C#N)cc3)c3ccccc3)n2)cn1 (single isomer, unassigned) [123 Isomer 1] | 2020 |
| CC(=O)N1CCN(c2ccc(NC(=O)C(NCCc3ccc(C#N)cc3)c3ccccc3)nc2)CC1 (single isomer, unassigned) [72 Isomer 1] | 4.13 |
| Cn1cc(-c2cnc(NC(=O)C(NCCc3ccc(C#N)cc3)c3ccccc3)c(F)c2)cn1 (single isomer, unassigned) [75 Isomer 2] | 387 |
| Cn1cnc(-c2ccc(NC(=O)C(NCCc3ccc(C#N)cc3)c3ccccc3)nc2)c1 (single isomer, unassigned) [13 Isomer 1] | 273 |
| Cn1cc(-c2cnc(NC(=O)C(NCCc3ccc(C#N)cc3)c3ccccc3)cc2F)cn1 (single isomer, unassigned) [74 Isomer 2] | 5 |
| COC1(C)CCN(c2ccc(NC(=O)C(NCCc3ccc(C#N)cc3)c3ccccc3)nc2)CC1 (single isomer, unassigned) [53 Isomer 2] | > 1000 |
| CS(=O)(=O)N1CCN(c2ccc(NC(=O)C(NCCc3ccc(C#N)cc3)c3ccccc3)nc2)CC1 (single isomer, unassigned) [68 Isomer 2] | 1.9 |
| C[C@H](CNC(C(=O)Nc1ccc(-c2ccn(C)c(=O)c2)cn1)c1ccccc1)c1ccc(C#N)cc1 (single isomer, unassigned) [105 Isomer 2] | 0.7 |
| CC(CNC(C(=O)Nc1ccc(-c2cnn(C)c2)cn1)c1ccccc1)c1ccc(C#N)c(F)c1 (single isomer, unassigned) [91 Isomer 2] | 0.75 |
| Cn1cc(-c2ccc(NC(=O)C(NCC(c3ccc(C#N)cc3)C(F)(F)F)c3ccccc3)nc2)cn1 (single isomer, unassigned) [149 Isomer 2] | < 3.24 |
| Cc1cnn(-c2ccc(NC(=O)C(NCC(C)c3ccc(C#N)cc3)c3ccccc3)nc2)c1 (single isomer, unassigned) [62 Isomer 4] | < 2 |
| Cc1ccn(-c2ccc(NC(=O)C(NCC(C)c3ccc(C#N)cc3)c3ccccc3)nc2)n1 (single isomer, unassigned) [61 Isomer 4] | 68.5 |
| Cc1ccn(-c2ccc(NC(=O)C(NCC(C)c3ccc(C#N)cc3)c3ccccc3)nc2)n1 (single isomer, unassigned) [61 Isomer 2] | 123 |
| Cc1ccn(-c2ccc(NC(=O)C(NCC(C)c3ccc(C#N)cc3)c3ccccc3)nc2)n1 (single isomer, unassigned) [61 Isomer 1] | 120 |
| CN1CCN(c2ccc(NC(=O)C(NCCc3ccc(Cl)cc3)c3ccccc3)nc2)CC1=O (single isomer, unassigned) [45 Isomer 1] | 1.46 |
| N#Cc1ccc(CCNC(C(=O)Nc2ccc(-c3ccccc3)cn2)c2ccccc2)cc1 (single isomer, unassigned) [34 Isomer 2] | 11 |

From patent US11274090B2, “P300/CBP HAT inhibitors” (Constellation Pharmaceuticals, Inc., priority 2018, dated 2022)
